Assay results from patent publication US9791444B2, “Method for differentially quantifying naturally processed HLA-restricted peptides for cancer, autoimmune and infectious diseases immunotherapy development” (IMMATICS BIOTECHNOLOGIES GMBH, priority 2010, dated 2017).

Tested on: CD8+ T cells from HLA-A*24 healthy donors
Assay: In vitro immunogenicity: in vitro priming of CD8+ T cells with pMHC/anti-CD28 coated beads (aAPC), A*2402 multimer staining
Type: cell-based, human
Conditions: HLA-A*2402 restricted, three stimulation cycles; for Positive wells/wells tested [%]: at least 24 wells evaluable for each peptide, positive well = at least 1% specific multimer+ among CD8+ and at least 10x median of negative controls; for Positive donors/donors tested [%]: at least two donors evaluable for each peptide
Excerpt: To get information regarding the immunogenicity of the TUMAPs of the present invention, we performed investigations using a well established in vitro stimulation platform already described by (Walter, S, Herrgen, L, Schoor, O, Jung, G, Wernet, D, Buhring, H J, Rammensee, H G, and Stevanovic, S; 2003, Cutting edge: predetermined avidity of human CD8 T cells expanded on calibrated MHC/anti-CD28-coated microspheres, J. Immunol., 171, 4974-4978).
In order to perform in vitro stimulations by artificial antigen presenting cells (aAPC) loaded with peptide-MHC complex (pMHC) and anti-CD28 antibody, we first isolated CD8 T cells from fresh HLA-A*24 leukapheresis products of healthy donors obtained from the Blood Bank Tuebingen.
CD8 T cells were either directly enriched from the leukapheresis product or PBMCs (peripheral blood mononuclear cells) were isolated first by using standard gradient separation medium (PAA, Cölbe, Germany). Isolated CD8 lymphocytes or PBMCs were incubated until use in T-cell medium (TCM) consisting of RPMI-Glutamax (Invitrogen, Karlsruhe, Germany) supplemented with 10% heat inactivated human AB serum (PAN-Biotech, Aidenbach, Germany), 100 U/ml Penicillin/100 μg/ml Streptomycin (Cambrex, Cologne, Germany), 1 mM sodium pyruvate (CC Pro, Oberdorla, Germany), 20 μg/ml Gentamycin (Cambrex). 2.5 ng/ml IL-7 (PromoCell, Heidelberg, Germany) and 10 U/ml IL-2 (Novartis Pharma, Nürnberg, Germany) were also added to the TCM at this step. Isolation of CD8+ lymphocytes was performed by positive selection using CD8 MicroBeads (Miltenyi Biotec, Bergisch-Gladbach, Germany).
Generation of pMHC/anti-CD28 coated beads, T-cell stimulations and readout was performed as described before (Walter et al. 4974-78) with minor modifications. Briefly, biotinylated peptide-loaded recombinant HLA-A*2402 molecules lacking the transmembrane domain and biotinylated at the carboxy terminus of the heavy chain were produced. The purified costimulatory mouse IgG2a anti human CD28 Ab 9.3 (Jung, Ledbetter, and Muller-Eberhard 4611-15) was chemically biotinylated using Sulfo-N-hydroxysuccinimidobiotin as recommended by the manufacturer (Perbio, Bonn, Germany).
800.000 beads/200 μl were coated in 96-well plates in the presence of 600 ng biotin anti-CD28 plus 200 ng relevant biotin-pMHC (high density beads). Stimulations were initiated in 96-well plates by co-incubating 1×10^6 CD8+ T cells with 2×10^5 washed coated beads in 200 μl TCM supplemented with 5 ng/ml IL-12 (PromoCell) for 3-4 days at 37° C. Half of the medium was then exchanged by fresh TCM supplemented with 80 U/ml IL-2 and incubating was continued for 3-4 days at 37° C. This stimulation cycle was performed for a total of three times. Finally, multimeric analyses were performed by staining the cells with Live/dead-Aqua dye (Invitrogen, Karlsruhe, Germany), CD8-FITC antibody clone SK1 (BD, Heidelberg, Germany) and PE- or APC-coupled A*2402 MHC multimers. For analysis, a BD LSRII SORP cytometer equipped with appropriate lasers and filters was used. Peptide specific cells were calculated as percentage of total CD8+ cells. Evaluation of multimeric analysis was done using the FlowJo software (Tree Star, Oreg., USA).

Sequence	Positive wells/wells tested [%]	Positive donors/donors tested [%]
SYIDVLPEF (listed as Homo sapiens) [MET-006]	22%	63%
NYEETFPHI (listed as Homo sapiens) [MUC6-001]	21%	50%
HYKPTPLYF (listed as Homo sapiens) [SMC4-001]	9%	75%
VWSDVTPLTF [PROM1-001]	26%	83%
VFIFKGNQF (listed as Homo sapiens) [MMP3-001]	1%	13%
FYISPVNKL (listed as Homo sapiens) [AVL9-001]	50%	100%
LYQILQGIVF (listed as Homo sapiens) [CDC2-001, gastric cancer associated TUMAP encoded by CDK1]	28%	88%
TYGNLLDYL (listed as Homo sapiens) [ABL1-001]	13%	50%
RFLSGIINF (listed as Homo sapiens) [NUF2-002]	4%	50%
IYNGKLFDLL (listed as Homo sapiens) [KIF2C-001]	2%	13%
VYTTSYQQI (listed as Homo sapiens) [NFYB-001]	7%	50%
KYNDTFWKEF (listed as Homo sapiens) [HSP90B1-001]	4%	50%
VYKVVGNLL (listed as Homo sapiens) [IQGAP3-001]	24%	100%
QYASRFVQL (listed as Homo sapiens) [PLK4-001]	5%	60%
NYLLYVSNF [MMP11-001]	11%	33%
YYNAAGFNKL (listed as Homo sapiens) [UQCRB-001]	38%	100%
AYLVYTDRL (listed as Homo sapiens) [PPAP2C-001]	54%	100%
AYAIIKEEL (listed as Homo sapiens) [ATAD2-001]	4%	50%
RYLWATVTI (listed as Homo sapiens) [ASPM-001]	3%	17%
SYNPLWLRI (listed as Homo sapiens) [ASPM-002, gastric cancer associated TUMAP encoded by ASPM]	31%	63%
VYGIRLEHF (listed as Homo sapiens) [NUF2-001]	25%	100%
VYIEKNDKL (listed as Homo sapiens) [ERBB3-001]	15%	83%
VFDTAIAHLF (listed as Homo sapiens) [SIAH2-001]	4%	50%
NYLPFIMEL (listed as Homo sapiens) [UCHL5-001]	14%	75%
NYLLYVSNF [MST1R-001] (listed as Homo sapiens)	14%	50%
